This passage reports inhibition results from patent US10308643B2, “Heterocyclic compound” (Takeda Pharmaceutical Company Limited, priority 2015, dated 2019).

What all share (type): biochemical
One experiment has as its target T1, HDAC6 enzyme (Homo sapiens, UniProt Q9UBN7).
T1 construct: transducing full length HDAC1 and HDAC6 genes into Sf-9 insect cells; GST; purchased SignalChem; host or cells: Sf-9 insect cells
T1 sequence (Q9UBN7 1-1215): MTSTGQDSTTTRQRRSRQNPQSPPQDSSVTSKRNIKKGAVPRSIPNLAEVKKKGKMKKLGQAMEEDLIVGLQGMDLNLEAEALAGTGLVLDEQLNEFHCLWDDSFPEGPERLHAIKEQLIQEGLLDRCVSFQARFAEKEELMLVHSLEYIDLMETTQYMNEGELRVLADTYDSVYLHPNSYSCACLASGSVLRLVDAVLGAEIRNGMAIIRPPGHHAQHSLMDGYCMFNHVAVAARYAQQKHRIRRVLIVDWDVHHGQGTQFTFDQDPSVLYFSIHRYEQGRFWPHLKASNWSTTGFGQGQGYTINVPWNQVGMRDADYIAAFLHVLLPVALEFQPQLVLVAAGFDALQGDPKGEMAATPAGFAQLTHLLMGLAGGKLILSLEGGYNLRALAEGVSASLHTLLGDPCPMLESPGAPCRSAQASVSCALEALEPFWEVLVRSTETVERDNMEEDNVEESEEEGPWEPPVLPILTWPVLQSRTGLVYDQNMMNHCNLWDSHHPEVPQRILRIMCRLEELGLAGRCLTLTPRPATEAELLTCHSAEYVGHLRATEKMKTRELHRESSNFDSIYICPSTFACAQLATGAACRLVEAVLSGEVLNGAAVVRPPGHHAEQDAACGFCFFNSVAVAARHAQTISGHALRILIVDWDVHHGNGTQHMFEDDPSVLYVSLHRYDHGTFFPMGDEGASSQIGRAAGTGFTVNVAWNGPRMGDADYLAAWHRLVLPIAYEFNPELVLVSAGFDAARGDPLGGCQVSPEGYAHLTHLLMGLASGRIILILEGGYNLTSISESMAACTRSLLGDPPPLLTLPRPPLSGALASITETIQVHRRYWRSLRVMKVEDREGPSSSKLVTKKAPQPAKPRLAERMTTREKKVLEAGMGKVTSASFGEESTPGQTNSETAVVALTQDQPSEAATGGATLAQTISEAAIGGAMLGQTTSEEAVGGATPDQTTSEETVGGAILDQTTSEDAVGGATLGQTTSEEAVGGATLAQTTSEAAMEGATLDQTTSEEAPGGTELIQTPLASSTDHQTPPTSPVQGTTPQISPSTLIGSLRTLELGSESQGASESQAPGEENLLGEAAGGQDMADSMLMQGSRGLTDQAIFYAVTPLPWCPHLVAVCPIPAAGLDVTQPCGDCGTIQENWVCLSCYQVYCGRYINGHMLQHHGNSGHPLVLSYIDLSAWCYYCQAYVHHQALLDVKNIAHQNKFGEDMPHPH
Put plainly: HDAC1/6 Enzyme Inhibitory Assay (HDAC-Glo I/II Assay kit), HDAC6. Particulars: 1 μM test compound; wells without enzyme = 100% inhibition; read-out: HDAC6 inhibitory rate (%) (1 μM). As for the experimental part:
(§1) HDAC1/6 Enzyme Inhibitory Assay
(§2) HDAC1 enzyme and HDAC6 enzyme each prepared by transducing full length HDAC1 and HDAC6 genes into Sf-9 insect cells and purifying by GST affinity column were purchased from SignalChem. Using these enzymes, HDAC1 and/or HDAC6 enzyme inhibitory activities of the compound of the present invention were evaluated. Enzymes were used after preserved at −70° C. HDAC1 or HDAC6 enzyme inhibitory activity of the compound of the present invention was measured using HDAC-Glo™ I/II Assay kit (Promega) according to the following experimental method. The test compound diluted with assay buffer (24 mM Tris-HCl (pH 7.5), 1 mM MgCl2, 0.35 mM KCl, 135 mM NaCl, 0.6 mM Glutathione, 0.01% Tween-20) was added to a 384-well plate by each 2 μL. Then, HDAC1 or HDAC6 enzyme solution diluted with assay buffer was added thereto by each 4 μL, and the plate was incubated at room temperature for 60 min. After incubated, HDAC substrate-Developer solution prepared according to Promega protocol attached to the assay kit was added to the 384-well plate by each 2 μL, and the enzyme reaction was started. After reacting at room temperature for 20 min, luminescence level was measured using plate reader Envision (PerkinElmer). The inhibitory activity of each compound was calculated as a relative activity value when luminescence level in wells without enzyme is considered as 100% inhibition.

The target of another experiment is T2, HDAC9 enzyme (Homo sapiens, UniProt Q9UKV0).
T2 construct: transducing full length HDAC9 gene into Sf-9 insect cells; made in house; host or cells: Sf-9 insect cells
Put plainly: HDAC9 Enzyme Inhibitory Assay (HDAC-Glo class IIa). Particulars: 1 μM test compound; wells without enzyme = 100% inhibition; read-out: HDAC9 inhibitory rate (%) (1 μM). As to the method:
HDAC9 Enzyme Inhibitory Assay
Enzyme was prepared by transducing full length HDAC9 gene into Sf-9 insect cells and purifying by Ni-NTA affinity column, and HDAC9 enzyme inhibitory activity was evaluated. Enzymes were used after preserved at −70° C. HDAC9 enzyme inhibitory activity of the test compound was measured using HDAC-Glo class IIa (Promega) according to the following experimental method. The test compound diluted with assay buffer (24 mM Tris-HCl (pH 7.5), 1 mM MgCl2, 0.35 mM KCl, 135 mM NaCl, 0.6 mM Glutathione, 0.01% Tween-20) was added to a 384-well plate by each 2 μL. Then, HDAC9 enzyme solution diluted with assay buffer was added thereto by each 2 μL, and the plate was incubated at room temperature for 60 min. After incubated, HDAC substrate-Developer solution prepared according to Promega protocol was added to the 384-well plate by each 4 μL, and the enzyme reaction was started. After reacting at room temperature for 20 min, luminescence level was measured using plate reader Envision (PerkinElmer). The inhibitory activity of each compound was calculated as a relative activity value when luminescence level in wells without enzyme is considered as 100% inhibition.

In the next experiment the target is T3, HDAC1 enzyme (Homo sapiens, UniProt Q13547).
T3 construct: transducing full length HDAC1 and HDAC6 genes into Sf-9 insect cells; GST; purchased SignalChem; host or cells: Sf-9 insect cells
In words: HDAC1/6 Enzyme Inhibitory Assay (HDAC-Glo I/II Assay kit), HDAC1. Particulars: 1 μM test compound; wells without enzyme = 100% inhibition; read-out: HDAC1 inhibitory rate (%) (1 μM). As to the method:
as §1, §2

T2 sequence (Q9UKV0 whole entry, species assumed): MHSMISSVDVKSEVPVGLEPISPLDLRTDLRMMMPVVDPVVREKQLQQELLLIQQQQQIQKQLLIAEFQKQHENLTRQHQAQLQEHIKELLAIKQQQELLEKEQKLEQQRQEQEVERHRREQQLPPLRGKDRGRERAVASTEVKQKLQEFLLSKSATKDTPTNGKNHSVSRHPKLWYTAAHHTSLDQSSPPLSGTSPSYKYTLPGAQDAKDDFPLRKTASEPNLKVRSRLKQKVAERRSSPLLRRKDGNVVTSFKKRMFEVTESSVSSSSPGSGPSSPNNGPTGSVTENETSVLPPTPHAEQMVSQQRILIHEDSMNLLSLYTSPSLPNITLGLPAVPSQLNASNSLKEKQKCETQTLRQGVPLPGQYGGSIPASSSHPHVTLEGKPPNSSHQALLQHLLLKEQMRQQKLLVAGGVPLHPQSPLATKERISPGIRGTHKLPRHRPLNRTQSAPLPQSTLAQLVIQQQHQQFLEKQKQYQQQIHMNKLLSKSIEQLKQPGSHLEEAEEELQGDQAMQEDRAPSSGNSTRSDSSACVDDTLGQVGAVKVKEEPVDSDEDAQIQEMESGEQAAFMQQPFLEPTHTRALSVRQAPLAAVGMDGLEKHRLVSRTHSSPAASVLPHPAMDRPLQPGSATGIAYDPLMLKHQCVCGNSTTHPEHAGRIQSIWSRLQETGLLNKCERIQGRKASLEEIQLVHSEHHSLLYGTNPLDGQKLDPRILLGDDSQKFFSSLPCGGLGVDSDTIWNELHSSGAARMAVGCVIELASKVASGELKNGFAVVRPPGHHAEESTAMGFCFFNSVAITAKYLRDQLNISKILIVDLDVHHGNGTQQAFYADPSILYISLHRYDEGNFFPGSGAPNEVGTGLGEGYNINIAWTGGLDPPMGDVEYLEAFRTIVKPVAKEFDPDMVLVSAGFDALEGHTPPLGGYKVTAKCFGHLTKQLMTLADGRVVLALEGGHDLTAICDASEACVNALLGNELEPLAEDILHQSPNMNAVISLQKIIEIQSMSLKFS
T3 sequence (Q13547 whole entry): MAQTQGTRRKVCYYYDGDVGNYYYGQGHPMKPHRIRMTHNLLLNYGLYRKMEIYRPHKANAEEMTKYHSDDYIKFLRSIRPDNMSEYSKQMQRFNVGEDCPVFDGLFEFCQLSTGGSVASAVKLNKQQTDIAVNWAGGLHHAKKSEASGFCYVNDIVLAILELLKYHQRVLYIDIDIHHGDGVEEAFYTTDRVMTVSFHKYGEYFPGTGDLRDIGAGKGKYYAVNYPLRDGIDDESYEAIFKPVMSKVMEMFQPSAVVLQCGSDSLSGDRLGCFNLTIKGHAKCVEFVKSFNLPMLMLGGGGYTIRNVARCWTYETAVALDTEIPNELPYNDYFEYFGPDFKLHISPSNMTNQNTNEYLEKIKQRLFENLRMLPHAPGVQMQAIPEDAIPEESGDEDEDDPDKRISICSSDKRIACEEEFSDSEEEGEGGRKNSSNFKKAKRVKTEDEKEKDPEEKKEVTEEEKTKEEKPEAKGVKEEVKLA

As to `Cc1cc([C@@H]2CNCC[C@H]2N2Cc3ccc(-c4noc(C(F)(F)F)n4)cc3C2=O)ccc1Cl` (relative stereo) [Example 57, 2-(trans-3-(4-chloro-3-methylphenyl)piperidin-4-yl)-6-(5-(trifluoromethyl)-1,2,4-oxadiazol-3-yl)isoindolin-1-one], the values for the inhibition at 1 µM at HDAC6 enzyme, on HDAC9 enzyme and on HDAC1 enzyme were 94%, 99% and 93%, respectively.

For the compound `O=C1c2cc(-c3noc(C(F)(F)F)n3)ccc2CN1[C@H]1CCCC[C@@H]1N1CCOCC1` (relative stereo) [Example 59, 2-(trans-2-(morpholin-4-yl)cyclohexyl)-6-(5-(trifluoromethyl)-1,2,4-oxadiazol-3-yl)isoindolin-1-one], the figures for the inhibition at 1 µM at HDAC6 enzyme, at HDAC9 enzyme and at HDAC1 enzyme were 97%, 91% and 60%, respectively.

`O=C1c2cc(-c3noc(C(F)(F)F)n3)ccc2CN1[C@@H]1CC[C@@H]1Cc1ccccc1` (relative stereo) [Example 60, 2-(cis-2-benzylcyclobutyl)-6-(5-(trifluoromethyl)-1,2,4-oxadiazol-3-yl)isoindolin-1-one]: the figures for the inhibition at 1 µM at HDAC6 enzyme, at HDAC9 enzyme and at HDAC1 enzyme were 92%, 77% and 37%, respectively.

As for `O=C1c2cc(-c3noc(C(F)(F)F)n3)ccc2CN1[C@H]1C[C@@H]1c1ccccc1` (relative stereo) [Example 66, 2-(trans-2-phenylcyclopropyl)-6-(5-(trifluoromethyl)-1,2,4-oxadiazol-3-yl)isoindolin-1-one], the inhibition at 1 µM is 90% at HDAC6 enzyme, 54% at HDAC9 enzyme and 17% on HDAC1 enzyme.

`CC(C)(C)OC(=O)N1CC[C@@H](c2ccccc2)[C@H](N2Cc3cc(-c4noc(C(F)(F)F)n4)ccc3C2=O)C1` (relative stereo) [Example 71, tert-butyl trans-3-(1-oxo-5-(5-(trifluoromethyl)-1,2,4-oxadiazol-3-yl)-1,3-dihydro-2H-isoindol-2-yl)-4-phenylpiperidine-1-carboxylate]: the figures for the inhibition at 1 µM on HDAC6 enzyme, at HDAC9 enzyme and at HDAC1 enzyme were 36%, 73% and 9%, respectively.

`O=C1c2ccc(-c3noc(C(F)(F)F)n3)cc2CN1[C@@H]1CNCC[C@H]1c1ccccc1` (relative stereo) [Example 72, trans-2-(4-phenylpiperidin-3-yl)-5-(5-(trifluoromethyl)-1,2,4-oxadiazol-3-yl)isoindolin-1-one]: the inhibition at 1 µM was found to be 90% on HDAC6 enzyme, 80% on HDAC9 enzyme and 32% at HDAC1 enzyme.

As for `CC(=O)N1CC[C@@H](c2ccccc2)[C@H](N2Cc3cc(-c4noc(C(F)(F)F)n4)ccc3C2=O)C1` (relative stereo) [Example 73, trans-2-(1-acetyl-4-phenylpiperidin-3-yl)-5-(5-(trifluoromethyl)-1,2,4-oxadiazol-3-yl)isoindolin-1-one], the figures for the inhibition at 1 µM on HDAC6 enzyme, at HDAC9 enzyme and on HDAC1 enzyme were 77%, 81% and 19%, respectively.

On to `CC(C)(C)OC(=O)N1CC[C@H](N2Cc3cc(-c4noc(C(F)(F)F)n4)ccc3C2=O)[C@H](c2ccccc2)C1` (relative stereo) [Example 78, tert-butyl cis-4-(1-oxo-5-(5-(trifluoromethyl)-1,2,4-oxadiazol-3-yl)-1,3-dihydro-2H-isoindol-2-yl)-3-phenylpiperidine-1-carboxylate], for which the inhibition at 1 µM on HDAC6 enzyme is 11%; on HDAC9 enzyme it was 76%; on HDAC1 enzyme, -3%.

In the case of `O=C1c2ccc(-c3noc(C(F)(F)F)n3)cc2CN1[C@H]1CCNC[C@H]1c1ccccc1` (relative stereo) [Example 79, cis-2-(3-phenylpiperidin-4-yl)-5-(5-(trifluoromethyl)-1,2,4-oxadiazol-3-yl)isoindolin-1-one], the inhibition at 1 µM amounted to 78% at HDAC6 enzyme, 88% at HDAC9 enzyme and 17% at HDAC1 enzyme.

For the compound `CC(=O)N1CC[C@H](N2Cc3cc(-c4noc(C(F)(F)F)n4)ccc3C2=O)[C@H](c2ccccc2)C1` (relative stereo) [Example 80, cis-2-(1-acetyl-3-phenylpiperidin-4-yl)-5-(5-(trifluoromethyl)-1,2,4-oxadiazol-3-yl)isoindolin-1-one], the inhibition at 1 µM on HDAC6 enzyme stood at 76%; on HDAC9 enzyme, 97%; on HDAC1 enzyme, 13%.

For the compound `CC(C)(C)OC(=O)N1CC[C@@H](N2Cc3cc(-c4noc(C(F)(F)F)n4)ccc3C2=O)[C@H](c2ccccc2)C1` (relative stereo) [Example 135, tert-butyl-trans-4-(1-oxo-5-(5-(trifluoromethyl)-1,2,4-oxadiazol-3-yl)-1,3-dihydro-2H-isoindol-2-yl)-3-phenylpiperidine-1-carboxylate], the figures for the inhibition at 1 µM at HDAC6 enzyme, at HDAC9 enzyme and at HDAC1 enzyme were 40%, 58% and -5%, respectively.

`O=C1c2ccc(-c3noc(C(F)(F)F)n3)cc2CN1[C@@H]1CCNC[C@H]1c1ccccc1` (relative stereo) [Example 136, trans-2-(3-phenylpiperidin-4-yl)-5-(5-(trifluoromethyl)-1,2,4-oxadiazol-3-yl)isoindolin-1-one]: the inhibition at 1 µM on HDAC6 enzyme is 94%; on HDAC9 enzyme it was 82%; on HDAC1 enzyme, 39%.

With `CC(=O)N1CC[C@@H](N2Cc3cc(-c4noc(C(F)(F)F)n4)ccc3C2=O)[C@H](c2ccccc2)C1` (relative stereo) [Example 137, trans-2-(1-acetyl-3-phenylpiperidin-4-yl)-5-(5-(trifluoromethyl)-1,2,4-oxadiazol-3-yl)isoindolin-1-one], the inhibition at 1 µM on HDAC6 enzyme was 89%; on HDAC9 enzyme, 94%; at HDAC1 enzyme it was 25%.

As to `CC(C)(C)OC(=O)N[C@@H]1CCCC[C@@H]1N1Cc2ccc(-c3noc(C(F)(F)F)n3)cc2C1=O` (relative stereo) [Example 198, tert-butyl (cis-2-(1-oxo-6-(5-(trifluoromethyl)-1,2,4-oxadiazol-3-yl)-1,3-dihydro-2H-isoindol-2-yl)cyclohexyl)carbamate], the inhibition at 1 µM at HDAC6 enzyme is 95%; on HDAC9 enzyme, 66%; on HDAC1 enzyme it was 26%.
